Results published in article PMC8778091, “In Silico-Based Discovery of Natural Anthraquinones with Potential against Multidrug-Resistant E. coli” (Pharmaceuticals, 2022).
Converted amounts (≈) assume the structure as drawn. Read-outs that look alike come from different tables or passages of the source.

Columns and labels:
[1] = target: T1, E. coli gyrase B43 domain (Gyr-B) (Escherichia coli, UniProt P0AES6); test: biochemical; type: biochemical
T1 construct: 20 μL of the enzyme (E. coli gyrase B43 domain; 20 μM concentration); purchased Inspiralis ATPG001
Experimental: (§1) Ddl-B and Gyr-B activity assays were performed according to the manufacturer protocols (ProFoldin, Catalogue No. DDA100KE, and Inspiralis, Catalogue No. ATPG001, UK).
Gyr-B assay measured the capability of the tested compounds to hinder the ATPase activity of Gyr-B subunits. This assay links the hydrolysis of ATP by gyrase to the conversion of NADH to NAD^+, which can be measured by a change in absorbance at 340 nm. The assay reactions and detection were performed using a 96-well plate. […] First, the assay mix was prepared by mixing 20 μL of the assay buffer (50 mM Tris.HCl (pH 7.5), 1 mM EDTA, 5 mM magnesium chloride, 5 mM DTT, 10% (w/v) glycerol), 1 μL phosphoenolpyruvate (80 mM in water), 1.5 μL pyruvate kinase/lactate dehydrogenase stock, 2 μL NADH (20 mM in water), and 58.8 μL water. Thereafter, 63.3 μL of assay mix and 10 μL of the test compound solution and 20 μL of the enzyme (E. coli gyrase B43 domain; 20 μM concentration) were added into the wells and mixed by pipetting. After incubation for 10 min at 25 °C, 6.7 uL of ATP (30 mM) was added to each well. After 60 min of incubation at 25 °C, the absorbance was measured at 340 nm.

[2] = system: VRSA (clinical isolate); test: MIC, agar dilution method, VRSA; type: cell-based, S. aureus; conditions: for MIC: Staphylococcus aureus, VRSA, read-out: MIC VRSA
Experimental: (§2) The selected top-scoring hits were evaluated for their antibacterial effect against two clinical multidrug-resistant strains of enterotoxigenic E. coli. Both isolates were isolated as clinical samples from Beni Suef general hospital, Beni Suef, Egypt. […] MRSA (ATCC 25529) and VRSA (clinical isolate from Beni Suef general hospital, Beni Suef, Egypt) were also used to further evaluate the tested compounds against resistant Gram-positive bacteria.
(§3) Minimum inhibitory concentrations for the test compounds were analyzed following the standard agar dilution method using Meuller-Hinton (MH) agar medium against different Gram-negative and positive bacteria (Table 1). Firstly, the tested compounds were prepared as a stock suspension with a 10 mg/mL final concentration in DMSO. Subsequently, the prepared stocks were diluted in 10 mL molten soft agar (0.5% agar) to obtain a concentration range from 1–64 µg/mL, then mixed and poured over a surface of MH agar (2% agar) plates and left for solidification. Finally, exponentially grown (O.D 600 nm of 0.6) test strains (Table 1) were diluted to a final density of 10^6 CFU/mL in MH broth and spotted (1 µL/spot) over the soft agar. Then, the plates were left for drying and incubated at 37 °C for 18–20 h. Controls were conducted using DMSO seeded soft agar. At the end of the experiment, the MIC for each compound was identified as the minimum concentration that inhibited the growth of the tested strain. The experiments were carried out in triplicates.

[3] = system: tested bacterial strains (E. coli MDR, MRSA, VRSA); test: Antibacterial evaluation, tested bacterial strains taken together; type: cell-based; conditions: for MIC: Escherichia coli, E. coli MDR, MRSA, VRSA
Experimental: as §2, §3

[4] = system: E. coli (MDR) a clinical isolate; test: MIC, agar dilution method, E. coli MDR a; type: cell-based; conditions: Escherichia coli
Experimental: as §2, §3

[5] = system: MRSA (ATCC 25529); test: MIC, agar dilution method, MRSA; type: cell-based, S. aureus; conditions: Staphylococcus aureus, read-out: MIC MRSA
Experimental: as §2, §3

[6] = target: T2, E. coli DAla:D-Ala ligase (Ddl-B) (Escherichia coli, UniProt P07862); test: Ddl-B enzymatic activity assay (inorganic phosphate, absorbance 650 nm); type: biochemical
T2 construct: purchased ProFoldin DDA100KE
Experimental: as §1
Ddl-B enzymatic activity assay is based on measuring the inorganic phosphate generated from the D-Alanine: D-Alanine ligation reaction. The inorganic phosphate is detected by absorbance at 650 nm. The assay reactions and detection were performed by using a 96-well plate. Different concentrations of the test compounds and the reference inhibitor D-cycloserine were prepared in DMSO (from 10 µM to 1000 µM). […] Thereafter, 33 μL of 10× enzyme substrate was prepared by mixing 3.3 μL of 100× enzyme substrate with 29.7 μL of water. Finally, 27 μL of the premix with 3 μL of the 10× enzyme substrate in each well were mixed. After 60 min of incubation at 37 °C, 45 μL of MPA3000 dye was added into the 30 μL of the reaction mixture. After 5 min of incubation, absorbance was measured at 650 nm.

[7] = Cellular toxicity against normal fibroblasts WI-38 (MTT); type: cell-based; conditions: human
Experimental: All selected top-scoring compounds were tested for their cellular toxicity against human fibroblasts cell line (WI-38). Cell line (WI-38; ATCC: CCL-75) was maintained in earth RPMI 1640 medium comprising 10% heat-inactivated fetal bovine serum (FBS) and grown at 37 °C and 5% CO2. The cell line was seeded on 96-well cell culture plates (2 × 10^4 cells/well). Cells were stimulated with tested compounds at different concentrations (from 1 to 50 µM) overnight in triplicates. Doxorubicin was used as a positive control. Cell viability was assessed by MTT assay. To normalize cell viability values, each plate included a triplicate of untreated cells considered as 100% viability, and a triplicate of cells treated with a cytotoxic mixture (200 ng/mL TNF, 200 ng/mL CD95L, 200 ng/mL TRAIL, 5 μg/mL CHX, 1% (w/v) sodium azide […]) considered as 0% viability. All other viability values were normalized according to the averages of these triplicates and analyzed by the Graph Pad Prism 5 software (La Jolla, CA, USA).

[8] = system: E. coli (MDR) b clinical isolate; test: MIC, agar dilution method, E. coli MDR b; type: cell-based; conditions: Escherichia coli, read-out: MIC E. coli (MDR) b
Experimental: as §2, §3

[9] = range 1-64 µg/mL, 37 °C, 18-20 h
[10] = range 1-64 µg/mL, 37 °C, 18-20 h, read-out: MIC E. coli (MDR) a
[11] = 10-1000 µM tested, read-out: IC50 Ddl-B
[12] = WI-38, 1 to 50 µM overnight, MTT, read-out: CC50
[13] = WI-38 normal fibroblast cells, WI-38, 1 to 50 µM overnight, MTT, read-out: CC50
[14] = MDR isolates a and b not distinguished, read-out: MIC E. coli

SMILES | IC50 [1] | Ki [1] | MIC [2, 9] | MIC [3] | MIC [4, 10] | MIC [5, 9] | Ddl-B inhibition in words [6] | CC50 [7] | MIC [8, 9] | Gyr-B inhibition in words [1] | IC50 [6, 11] | Ki ([6]; read-out: Ki Ddl-B) | CC50 [7, 13] | also measured
CC(C)C1=CC2=CC[C@@H]3[C@](C)(CCC[C@@]3(C)C(=O)O)[C@H]2CC1 [Abietic acid] | 1.4 ± 0.4 µM | 0.77 ± 0.1 µM | 16 µg/mL (≈ 52.9 µM) | 16 to 64 µg/mL (≈ 52.9 to 212 µM) | 64 µg/mL (≈ 212 µM) | > 64 µg/mL | inactive | > 50 µM | 16 µg/mL (≈ 52.9 µM) |  |  |  |  | IC50 [6]: > 1000 µM; Ki [6]: > 1000 µM
O=C1c2ccccc2C(=O)c2c1ccc(O)c2O [Alizarin] | 17.9 ± 1.2 µM | 10.4 ± 1.1 µM |  |  |  |  | moderately inhibited |  |  | moderately inhibited | 468 ± 6.5 µM | 220 ± 4.3 µM |  | MIC [2]: > 64 µg/mL; MIC VRSA [2, 9]: >64 µg/mL; MIC ([4]; read-out: MIC E. coli): 64 µg/mL (≈ 266 µM); MIC ([4]; read-out: MIC E. coli (MDR) a): 64 µg/mL (≈ 266 µM); MIC [5]: 64 µg/mL (≈ 266 µM); CC50 [7, 12]: 25.9 ± 0.69 µM; MIC [8]: > 64 µg/mL
O=C1c2c(O)cccc2C([C@@H]2O[C@H](CO)[C@@H](O)[C@H](O)[C@H]2O)c2cc(CO)cc(O)c21 (stereo partly shown) [Aloin] | 22.4 ± 2.1 µM | 10.5 ± 1.6 µM | > 64 µg/mL | > 64 µg/mL | > 64 µg/mL | > 64 µg/mL | weak inhibition |  | > 64 µg/mL | weak inhibition | 927 ± 7.4 µM | 529 ± 12.3 µM | 34.7 ± 0.94 µM | 
O=C1c2ccccc2C(=O)c2ccccc21 [Anthraquinone] | > 100 µM |  | 64 µg/mL (≈ 307 µM) |  | > 64 µg/mL | > 64 µg/mL | inactive |  | > 64 µg/mL | inactive |  |  |  | Antibacterial activity in words, all tested bacteria [3]: inactive
O=C1c2cccc(O)c2C(=O)c2cccc(O)c21 [Anthrarufin] | 6.93 ± 1.6 µM | 4.1 ± 1.6 µM | > 64 µg/mL |  | 2 µg/mL (≈ 8.33 µM) | 2 µg/mL (≈ 8.33 µM) | comparable to the reference inhibitor D-cycloserine |  | 2 µg/mL (≈ 8.33 µM) | moderate activity | 350 ± 7.4 µM | 345 ± 10.1 µM | 29.7 ± 0.76 µM | MIC VRSA [2, 9]: >64 µg/mL; MIC [4, 14]: 2 µg/mL (≈ 8.33 µM)
Cc1cc(O)c2c(c1)C(=O)c1cccc(O)c1C2=O [Chrysophanol] | 1.5 ± 0.5 µM | 0.83 ± 0.2 µM | 4 µg/mL (≈ 15.7 µM) | 2 to 4 µg/mL (≈ 7.87 to 15.7 µM) | 4 µg/mL (≈ 15.7 µM) | > 64 µg/mL | more potent | 48.1 ± 1.39 µM | 4 µg/mL (≈ 15.7 µM) |  |  |  |  | IC50 [6]: 236 ± 8.9 µM; Ki [6]: 105 ± 4.9 µM
Cc1cc(O)c2c(c1)C(=O)c1cc(O)cc(O)c1C2=O [Emodin] | 0.81 ± 0.3 µM | 0.22 ± 0.1 µM | 2 µg/mL (≈ 7.4 µM) | 2 to 4 µg/mL (≈ 7.4 to 14.8 µM) | 2 µg/mL (≈ 7.4 µM) | 2 µg/mL (≈ 7.4 µM) | more potent | 49.2 ± 1.39 µM | 2 µg/mL (≈ 7.4 µM) |  | 216 ± 5.6 µM | 102 ± 4.8 µM |  | 
COc1ccc(Cc2nccc3cc(OC)c(OC)cc23)cc1OC [Papaverine] | > 100 µM |  | > 64 µg/mL |  | > 64 µg/mL | > 64 µg/mL |  | 36.8 ± 0.93 µM | > 64 µg/mL |  |  |  |  | Antibacterial activity in words, all tested bacteria [3]: inactive
COc1cc(O)c2c(c1)C(=O)c1cc(C)cc(O)c1C2=O [Physcion] | 10.9 ± 0.5 µM | 6.6 ± 0.9 µM | 2 µg/mL (≈ 7.04 µM) |  | 2 µg/mL (≈ 7.04 µM) | 2 µg/mL (≈ 7.04 µM) | more potent |  | 2 µg/mL (≈ 7.04 µM) |  | 244 ± 7.2 µM | 119 ± 9.1 µM | > 50 µM | 
O=C1c2ccccc2C(=O)c2c(O)ccc(O)c21 [Quinizarin] | 38.8 ± 2.3 µM | 17.9 ± 1.4 µM | 16 µg/mL (≈ 66.6 µM) |  | 64 µg/mL (≈ 266 µM) | 64 µg/mL (≈ 266 µM) | moderately inhibited |  | 64 µg/mL (≈ 266 µM) | moderately inhibited | 515 ± 8.3 µM | 230 ± 8.3 µM | 20.1 ± 0.56 µM | MIC [4, 14]: 64 µg/mL (≈ 266 µM)
O=C(O)c1cc(O)c2c(c1)C(=O)c1cccc(O)c1C2=O [Rhein] | 11.5 ± 1.2 µM | 7.33 ± 0.9 µM | 8 µg/mL (≈ 28.1 µM) |  | 8 µg/mL (≈ 28.1 µM) | > 64 µg/mL | more potent |  | 2 µg/mL (≈ 7.04 µM) |  |  |  |  | IC50 [6]: 281 ± 6.1 µM; Ki [6]: 133 ± 2.3 µM; CC50 [7, 12]: > 50 µM
